This is an account of results in paper PMC3586729 (Nature Communications, 2013).

In the test the target is T1, F. pringlei R884G mutant C3 PEPC (Flaveria pringlei, UniProt Q01647, R885G).
T1 sequence (Q01647 1-967 R885G): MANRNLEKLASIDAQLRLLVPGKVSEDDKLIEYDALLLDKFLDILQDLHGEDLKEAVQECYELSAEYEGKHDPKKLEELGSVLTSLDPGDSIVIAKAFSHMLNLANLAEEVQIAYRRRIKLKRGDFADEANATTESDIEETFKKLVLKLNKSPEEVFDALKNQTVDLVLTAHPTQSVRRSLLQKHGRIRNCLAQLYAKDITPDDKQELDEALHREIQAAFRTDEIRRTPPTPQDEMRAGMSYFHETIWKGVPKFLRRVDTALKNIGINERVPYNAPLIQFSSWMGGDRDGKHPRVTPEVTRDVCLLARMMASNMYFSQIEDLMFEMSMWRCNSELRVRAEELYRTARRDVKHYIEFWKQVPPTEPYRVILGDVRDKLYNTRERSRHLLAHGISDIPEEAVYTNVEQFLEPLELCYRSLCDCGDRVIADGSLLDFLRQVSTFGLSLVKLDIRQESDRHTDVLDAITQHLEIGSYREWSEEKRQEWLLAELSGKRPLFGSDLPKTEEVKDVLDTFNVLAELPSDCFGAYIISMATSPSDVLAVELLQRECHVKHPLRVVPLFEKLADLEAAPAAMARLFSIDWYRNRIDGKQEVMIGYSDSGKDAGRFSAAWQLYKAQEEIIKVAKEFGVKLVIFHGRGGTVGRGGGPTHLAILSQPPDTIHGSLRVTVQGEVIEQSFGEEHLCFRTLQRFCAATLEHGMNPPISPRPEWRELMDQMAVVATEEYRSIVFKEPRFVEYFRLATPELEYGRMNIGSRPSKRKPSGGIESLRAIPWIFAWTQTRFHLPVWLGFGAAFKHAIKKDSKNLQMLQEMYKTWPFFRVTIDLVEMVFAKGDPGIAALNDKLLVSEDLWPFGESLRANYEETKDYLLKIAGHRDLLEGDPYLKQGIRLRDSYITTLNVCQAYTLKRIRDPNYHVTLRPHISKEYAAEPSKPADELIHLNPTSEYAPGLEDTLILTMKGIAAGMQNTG
In kind it is biochemical. Conditions: C3 PEPC R884G versus wild-type C3 PEPC from F. pringlei.

Take `O=C(O)CC(O)C(=O)O` (stereo not shown) [malate]: the “malate tolerance of the engineered enzyme increased by a factor” value is ~ 3.
